Test results published in patent US9556180B2, “Pyrazolo[3,4-d]pyrimidinone compounds as inhibitors of the P53/MDM2 interaction” (Novartis AG, priority 2013, dated 2017).

How the values were obtained:
Format in all cases: binding
[1] = target: T1, p53-MDM4 interaction (human MDM4 protein, amino acids 2-185) (Homo sapiens, UniProt O15151); assay: p53-MDM4 Assay 1: TR-FRET inhibition of p53-MDM4 interaction; details: 2.5 nM MDM4-biotinylated, 10 nM Cy5-p53 peptide
T1 construct: human MDM4 protein (amino acids 2-185); made in house
T1 sequence (O15151 2-185): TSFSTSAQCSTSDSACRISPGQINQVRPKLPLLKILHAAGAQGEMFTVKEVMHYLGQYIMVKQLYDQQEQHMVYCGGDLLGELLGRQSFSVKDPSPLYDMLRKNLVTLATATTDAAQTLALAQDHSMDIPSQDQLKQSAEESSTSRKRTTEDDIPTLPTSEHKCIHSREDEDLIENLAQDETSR
Procedure: (§1) Time Resolved Fluorescence Energy Transfer (TR-FRET) Assay
(§2) The inhibition of p53-MDM2 and p53-MDM4 interactions is measured by time resolved fluorescence energy transfer (TR-FRET). Fluorescence energy transfer (or Foerster resonance energy transfer) describes an energy transfer between donor and acceptor fluorescent molecules. For this assay, human MDM2 protein (amino acids 2-188) and human MDM4 protein (amino acids 2-185), tagged with a C-terminal biotin moiety, are used in combination with a Europium labeled streptavidin (Perkin Elmer, Inc., Waltham, Mass., USA) serving as the donor fluorophore. The p53 derived, Cy5 labeled peptide Cy5-TFSDLWKLL (p53 aa18-26) is the energy acceptor. Upon excitation of the donor molecule at 340 nm, binding interaction between MDM2 or MDM4 and the p53 peptide induces energy transfer and enhanced response at the acceptor emission wavelength at 665 nm. Disruption of the formation of the p53-MDM2 or p53-MDM4 complex due to an inhibitor molecule binding to the p53 binding site of MDM2 or MDM4 results in increased donor emission at 620 nm. The ratiometric FRET assay readout is calculated from the raw data of the two distinct fluorescence signals measured in time resolved mode (fluorescence 665 nm/fluorescence 620 nm×1000).
(§3) After addition of 1.25 nM MDM2-biotinylated or 2.5 nM MDM4-biotinylated (internal preparations, both MDM2 and MDM4 are biotinylated at the C-terminal of the peptide construct), and 0.625 nM Europium labeled streptavidin (Perkin Elmer), the solution is pre-incubated for 15 minutes at room temperature, then 10 nM Cy5-p53 peptide (internal preparation, the Cy5 dye is directly bound to the N-terminal part of p53 peptide construct) is added before an incubation at room temperature for 15 minutes prior to reading the plate. For measurement of samples, a Victor II microplate reader (Perkin Elmer) is used with the following settings: Excitation 340 nm, Emission Donor 620 nm and Emission Acceptor 665 nm. IC50 values are calculated by curve fitting using XLfit. If not specified, reagents are purchased from Sigma-Aldrich Chemie GmBH, Buchs, Switzerland.
(§4) This assay was used to evaluate compounds displaying inhibition of p53-MDM2 interaction and p53-MDM4 interaction at IC50s of 0.005 to 50 μM (p53-MDM2 Assay 1 and p53-MDM4 Assay 1, respectively). For selected compounds displaying IC50s between […] on MDM2, a slightly modified assay is used with the following adaptations: 0.1 nM MDM2, 0.1 nM Europium labeled streptavidin and Tecan genios Pro is used as a microplate reader for the fluorescence measurements (p53-MDM2 Assay 2).

[2] = target: T2, p53-MDM2 interaction (human MDM2 protein, amino acids 2-188) (Homo sapiens, UniProt Q00987); assay: p53-MDM2 Assay 2: slightly modified TR-FRET assay; details: 0.1 nM MDM2, 0.1 nM Europium labeled streptavidin, Tecan genios Pro reader
T2 construct: human MDM2 protein (amino acids 2-188); made in house
T2 sequence (Q00987 2-188): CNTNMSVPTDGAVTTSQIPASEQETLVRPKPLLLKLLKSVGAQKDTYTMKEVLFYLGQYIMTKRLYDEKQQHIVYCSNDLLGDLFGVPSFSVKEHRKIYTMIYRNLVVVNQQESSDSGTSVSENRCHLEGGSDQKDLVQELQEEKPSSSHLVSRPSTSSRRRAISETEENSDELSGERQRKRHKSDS
Procedure: as §1, §2, §3, §4

[3] = target: T2, p53-MDM2 interaction (human MDM2 protein, amino acids 2-188); assay: p53-MDM2 Assay 1: TR-FRET inhibition of p53-MDM2 interaction; details: 1.25 nM MDM2-biotinylated, 10 nM Cy5-p53 peptide
Procedure: as §1, §2, §3, §4

| Structure (SMILES) | IC50 [1] [nM] | IC50 [2] [nM] | IC50 [3] [nM] |
| --- | --- | --- | --- |
| COc1ccccc1-n1nc2c(c1C(C)C)[C@H](c1ccc(Cl)cc1C)N(c1cccc(Cl)c1F)C(=O)N2 [Example 6, (S)-5-(3-Chloro-2-fluoro-phenyl)-4-(4-chloro-2-methyl-phenyl)-3-isopropyl-2-(2-methoxy-phenyl)-2,4,5,7-tetrahydro-pyrazolo[3,4-d]pyrimidin-6-one] | 2760 | 0.42 | 0.7 |
| COc1ccccc1-n1nc2c(c1C(C)C)C(c1ccc(Cl)cc1C)N(c1cc(Cl)ccc1C)C(=O)N2 (stereo not drawn) [Example 10, 4-(4-Chloro-2-methyl-phenyl)-5-(5-chloro-2-methyl-phenyl)-3-isopropyl-2-(2-methoxy-phenyl)-2,4,5,7-tetrahydro-pyrazolo[3,4-d]pyrimidin-6-one] | 4700 | 0.21 | 1.1 |
| COc1ccccc1-n1nc2c(c1C(C)C)C(c1ccc(Cl)cc1)N(c1cc(Cl)c(=O)n(C)c1)C(=O)N2 (stereo not drawn) [Example 13, 5-(5-Chloro-1-methyl-6-oxo-1,6-dihydro-pyridin-3-yl)-4-(4-chloro-phenyl)-3-isopropyl-2-(2-methoxy-phenyl)-2,4,5,7-tetrahydro-pyrazolo[3,4-d]pyrimidin-6-one] | 2180 | 0.25 | 1.6 |
| CCn1cc(N2C(=O)Nc3nn(-c4ccccc4OC)c(C(C)C)c3C2c2ccc(Cl)cc2)cc(Cl)c1=O (stereo not drawn) [Example 14, 5-(5-Chloro-1-ethyl-6-oxo-1,6-dihydro-pyridin-3-yl)-4-(4-chloro-phenyl)-3-isopropyl-2-(2-methoxy-phenyl)-2,4,5,7-tetrahydro-pyrazolo[3,4-d]pyrimidin-6-one] | 1480 | 0.33 | 1.5 |
| COc1ccccc1-n1nc2c(c1C(C)C)C(c1ccc(Cl)cc1C)N(c1cc(Cl)c(=O)n(C)c1)C(=O)N2 (stereo not drawn) [Example 15, 5-(5-Chloro-1-methyl-6-oxo-1,6-dihydro-pyridin-3-yl)-4-(4-chloro-2-methyl-phenyl)-3-isopropyl-2-(2-methoxy-phenyl)-2,4,5,7-tetrahydro-pyrazolo[3,4-d]pyrimidin-6-one] | 1550 | 0.18 | 1.45 |
| COc1ccccc1-n1nc2c(c1C(C)C)C(c1ccc(Cl)cc1)N(c1cc(Cl)c(=O)n(CCO)c1)C(=O)N2 (stereo not drawn) [Example 18, 5-[5-Chloro-1-(2-hydroxy-ethyl)-6-oxo-1,6-dihydro-pyridin-3-yl]-4-(4-chloro-phenyl)-3-isopropyl-2-(2-methoxy-phenyl)-2,4,5,7-tetrahydro-pyrazolo[3,4-d]pyrimidin-6-one] | 2370 | 0.56 | 1.6 |
| COCCn1cc(N2C(=O)Nc3nn(-c4ccccc4OC)c(C(C)C)c3C2c2ccc(Cl)cc2C)cc(Cl)c1=O (stereo not drawn) [Example 19, 5-[5-Chloro-1-(2-methoxy-ethyl)-6-oxo-1,6-dihydro-pyridin-3-yl]-4-(4-chloro-2-methyl-phenyl)-3-isopropyl-2-(2-methoxy-phenyl)-2,4,5,7-tetrahydro-pyrazolo[3,4-d]pyrimidin-6-one] | 1350 | 0.17 | 1.3 |
| CCn1cc(N2C(=O)Nc3nn(-c4ccccc4OC)c(C(C)C)c3C2c2ccc(Cl)cc2C)cc(Cl)c1=O (stereo not drawn) [Example 21, 5-(5-Chloro-1-ethyl-6-oxo-1,6-dihydropyridin-3-yl)-4-(4-chloro-2-methylphenyl)-3-isopropyl-2-(2-methoxyphenyl)-4,5-dihydro-2H -pyrazolo[3,4-d]pyrimidin-6(7H)-one] | 1630 | 0.19 | 1.4 |
| COc1ccccc1-n1nc2c(c1C(C)C)C(c1ccc(Cl)cc1)N(c1cc(Cl)c(=O)n(CCN(C)C)c1)C(=O)N2 (stereo not drawn) [Example 22, 5-[5-Chloro-1-(2-dimethylamino-ethyl)-6-oxo-1,6-dihydro-pyridin-3-yl]-4-(4-chloro-phenyl)-3-isopropyl-2-(2-methoxy-phenyl)-2,4,5,7-tetrahydro-pyrazolo[3,4-d]pyrimidin-6-one] | 6230 | 1.43 | 2.7 |
